According to patent US10273233B2, “Inhibitors of influenza viruses replication” (Vertex Pharmaceuticals Incorporated, priority 2015, dated 2019):

Assays:
B/Russia/69 = assay: 3-day CP assay in MDCK cells; format: cell-based; conditions: Influenza B virus
influenza A = assay: Influenza A mouse model, Compound (1) with or without oseltamivir; format: in vivo, Mice; conditions: for Percent Survival: 10 days
Description: Referring to FIG. 32, the potential for a positive therapeutic interaction between Compound (1) and oseltamivir against influenza A was explored in the mouse model. Mice were challenged with influenza A and dosed with vehicle (10 mL/kg 0.5% MC) or Compound (1) at 1, 3, 10, or 30 mg/kg BID alone, or in combination with 10 mg/kg BID oseltamivir. Therapy was started 48 hours post influenza A infection and continued for 10 days. All of the vehicle-treated controls succumbed to disease by study day 8 (Table 21).

For `CC(C)(C)[C@@H](CC(=O)O)Nc1nc(-c2c[nH]c3ncc(F)cc23)ncc1F` [Compound (1)], the EC50 (B/Russia/69) was greater than 10 µM, the protection from mortality (influenza A; 1 or 3 mg/kg BID Compound (1) with 10 mg/kg oseltamivir dosed BID) was “increased protection from mortality compared to the single agents” and the “Percent Survival” value (influenza A; Compound (1) 1 mg/kg BID alone, started +48 hours after infection) was 0%. The “Percent Survival” value (influenza A; Compound (1) 1 mg/kg BID in combination with oseltamivir 10 mg/kg BID, +48 hours) was 87.5%, the “Percent Survival” value (influenza A; Compound (1) 3 mg/kg BID alone, started +48 hours after infection) was 75% and the “Percent Survival” value (influenza A; Compound (1) 3 mg/kg BID in combination with oseltamivir 10 mg/kg BID, +48 hours) was 100%. For the same molecule, the “Percent Survival” value (influenza A; Compound (1) 10 mg/kg BID alone, started +48 hours after infection) was 100%, the “Percent Survival” value (influenza A; Compound (1) 10 mg/kg BID in combination with oseltamivir 10 mg/kg BID, +48 hours) was 100% and the “Percent Survival” value (influenza A; Compound (1) 30 mg/kg BID alone, started +48 hours after infection) was 100%. For the same molecule, the “Percent Survival” value (influenza A; Compound (1) 30 mg/kg BID in combination with oseltamivir 10 mg/kg BID, +48 hours) was 100%, the protection from mortality (influenza A; Compound (1) at 3 mg/kg BID alone) was “partial survival benefit” and the protection from mortality (influenza A; Compound (1) at 10 or 30 mg/kg BID alone) was “complete protection from mortality”. For the same molecule, the protection from mortality (influenza A; administered alone: Compound (1) 1 mg/kg BID, oseltamivir 10 mg/kg) was “failed to protect mice from influenza infection” and the “interaction of Compound (1) and oseltamivir combination” value (influenza A; combination with oseltamivir) was “synergistic effect”.
